Our source for the TGI values is PubChem BioAssay (NCI).

Molecules are shown by their SMILES.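 Five compound concentrations were applied to cells in 96-well plates for 48 hours; endpoints were derived by simple linear interpolation of the resulting dose-response curve. At the TGI there is no net growth.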

What all share (assay): inhibition of tumour cell growth, NCI panel, 48 h
Assay [1] concerns SK-OV-3 ovarian.
The subject of assay [2] is OVCAR-8 ovarian.
In assay [3] the test system is OVCAR-3 ovarian.
The test system of assay [4] is SNB-75 CNS.
Assay [5] deals with KM12 colon.
The subject of assay [6] is MDA-MB-435.
The subject of assay [7] is PC-3 prostate.
Assay [8] deals with HL-60(TB) leukemia.
The test system of assay [9] is COLO 205 colon.
The test system of assay [10] is MCF7 breast.

`CC(=O)Nc1ccc(N2C(=O)CS(=O)(=O)C2c2cccc(Oc3ccccc3)c2)cc1` (stereo not given): the TGI in assay [1] turned out to be 83.1 µM; in assay [2], 41.6 µM; in [3] it was 38.2 µM; in assay [4] it was 55.2 µM; in assay [5] it was 47.2 µM; in assay [6] it was 48.5 µM. In addition, the TGI stood at 42.8 µM in [7], 84.8 µM in assay [8], 35.7 µM in assay [9] and 35.9 µM in assay [10].
For the molecule `COC(=O)C1=COC(C)C2C[n+]3ccc4c([nH]c5ccccc54)c3CC12` (stereo not given), the TGI in [1], in assay [2], in assay [3], in assay [4], in [5] and in [6] was above 100 µM in each case. Further, the TGI in assay [7], in assay [8], in assay [9] and in [10] was above 100 µM throughout.
Turning to `CCSCC(=O)N1CCc2c([nH]c3ccccc23)C1=O`, the TGI in assay [1], in [2], in assay [3], in assay [4], in assay [5] and in [6] was above 100 µM each time. Moreover, the TGI in assay [7], in [8], in assay [9] and in assay [10] was above 100 µM each time.
Take `CCOP(=O)(CC1CC(O)(CNc2cc(Cl)nc(N)n2)C1)OCC` (stereo not given): the TGI in assay [1], in [2], in assay [3], in [4], in assay [5] and in [6] was above 100 µM throughout. The TGI in assay [7], in assay [8], in [9] and in [10] was above 100 µM in each case.
For the molecule `NC(CCl)=NC1CN2CCC1CC2` (stereo not given), the TGI in [1], in [2], in [3], in assay [4], in assay [5] and in assay [6] was above 100 µM each time. Also, the TGI was above 100 µM in assay [7], above 100 µM in assay [8], 73.8 µM in assay [9] and above 100 µM in [10].
Turning to `N#Cc1nc(C(F)(F)F)oc1N`, the TGI in assay [1], in assay [2], in [3], in assay [4], in [5] and in assay [6] was above 100 µM each time. Besides, the TGI in assay [7], in [8], in assay [9] and in assay [10] was above 100 µM throughout.
With `CN1[C@@H]2CCCC[C@H]2N(C)P1(=O)C(O)/C=C/c1ccccc1` (stereo not given in full), the TGI in assay [1], in assay [2], in assay [3], in assay [4], in assay [5] and in assay [6] was above 100 µM throughout. For the same molecule, the TGI in [7], in [8], in [9] and in [10] was above 100 µM each time.
`CCOC(O)C(F)(F)F` (stereo not given): the TGI in assay [1], in [2], in assay [3], in assay [4], in [5] and in [6] was above 100 µM throughout. The TGI in assay [7], in assay [8], in assay [9] and in assay [10] was above 100 µM in each case.
For `COc1ccc2c(c1)c(=O)c1c(NCCCN(C)CCCNc3ccc4c(=O)n(CCN(C)C)c(=O)n5c6ccc(OC)cc6c(=O)c3c45)ccc3c(=O)n(CCN(C)C)c(=O)n2c31`, the TGI in assay [1] came to 4.98 µM; in assay [2], 2.65 µM; in [3], 2.56 µM; in assay [4], 0.216 µM; in assay [5], 1.11 µM; in assay [6], 0.756 µM. Moreover, the TGI in assay [7] is 0.858 µM; in [8], 0.963 µM; in assay [9], 0.803 µM; in assay [10], 1.12 µM.
For the molecule `Cc1ccc(S(=O)(=O)Nc2nc3ccccc3c(=O)n2C2CCCCC2)cc1`, the TGI in [1], in assay [2], in assay [3], in assay [4], in assay [5] and in assay [6] was above 100 µM each time. The TGI in assay [7], in assay [8], in [9] and in assay [10] was above 100 µM in each case.
Take `NC(Cc1ccccc1)=NCC(=O)O`: the TGI in assay [1], in [2], in assay [3], in [4], in [5] and in assay [6] was above 100 µM each time. The TGI in assay [7], in assay [8], in [9] and in assay [10] was above 100 µM each time.
